From ChEMBL document CHEMBL5724914, “Linking interpersonal differences in gut microbiota composition and drug biotransformation activity” (2024)

settings: human gut metagenome, 24 h, 2 µM
Further: call rule not given here.

SMILES | Bacterial Biotransformation
CN(C)C(=O)C(CCN1CCC(O)(c2ccc(Cl)cc2)CC1)(c1ccccc1)c1ccccc1 [LOPERAMIDE] | Compound NOT metabolized
Fc1ccc([C@@H]2CCNC[C@H]2COc2ccc3c(c2)OCO3)cc1 [PAROXETINE] | Compound NOT metabolized

assay: (§1) The drug is tested on Z-023 corresponding to metagenome with ENA study accession number: PRJEB37062 and ENA sample accession number: ERS12561822 for biotransformation under anaerobic condition. The drug concentrations were measured over 9 timepoints collected between 0 and 24 hours of incubation by liquid-chromatography-coupled mass spectrometry (LC–MS); settings: 2 µM

SMILES | Bacterial Biotransformation
CN(C)C(=O)C(CCN1CCC(O)(c2ccc(Cl)cc2)CC1)(c1ccccc1)c1ccccc1 [LOPERAMIDE] | Compound metabolized
Fc1ccc([C@@H]2CCNC[C@H]2COc2ccc3c(c2)OCO3)cc1 [PAROXETINE] | Compound metabolized

assay: (§2) The drug is tested on Z-025 corresponding to rabbit gut metagenome with ENA study accession number: PRJEB37062 and ENA sample accession number: ERS12561824 for biotransformation under anaerobic condition. The drug concentrations were measured over 9 timepoints collected between 0 and 24 hours of incubation by liquid-chromatography-coupled mass spectrometry (LC–MS); settings: 2 µM

SMILES | Bacterial Biotransformation
CN(C)C(=O)C(CCN1CCC(O)(c2ccc(Cl)cc2)CC1)(c1ccccc1)c1ccccc1 [LOPERAMIDE] | Compound metabolized
Fc1ccc([C@@H]2CCNC[C@H]2COc2ccc3c(c2)OCO3)cc1 [PAROXETINE] | Compound NOT metabolized

assay: as §2, with “Z-022” for “Z-025”, “mouse” for “rabbit”, “ERS12561821” for “ERS12561824”; settings: 2 µM

SMILES | Bacterial Biotransformation
CN(C)C(=O)C(CCN1CCC(O)(c2ccc(Cl)cc2)CC1)(c1ccccc1)c1ccccc1 [LOPERAMIDE] | Compound metabolized
Fc1ccc([C@@H]2CCNC[C@H]2COc2ccc3c(c2)OCO3)cc1 [PAROXETINE] | Compound metabolized

settings: human gut metagenome, 24 h, 2 µM; remark: another data set of the same source

SMILES | Bacterial Biotransformation
CN(C)C(=O)C(CCN1CCC(O)(c2ccc(Cl)cc2)CC1)(c1ccccc1)c1ccccc1 [LOPERAMIDE] | Compound metabolized
Fc1ccc([C@@H]2CCNC[C@H]2COc2ccc3c(c2)OCO3)cc1 [PAROXETINE] | Compound metabolized

assay: as §2, with “WLS-039” for “Z-025”, “human” for “rabbit”, “ERS12561746” for “ERS12561824”; settings: 2 µM

SMILES | Bacterial Biotransformation
CN(C)C(=O)C(CCN1CCC(O)(c2ccc(Cl)cc2)CC1)(c1ccccc1)c1ccccc1 [LOPERAMIDE] | Compound metabolized
Fc1ccc([C@@H]2CCNC[C@H]2COc2ccc3c(c2)OCO3)cc1 [PAROXETINE] | Compound metabolized

assay: as §2, with “WLS-010” for “Z-025”, “human” for “rabbit”, “ERS12561743” for “ERS12561824”; settings: 2 µM

SMILES | Bacterial Biotransformation
CN(C)C(=O)C(CCN1CCC(O)(c2ccc(Cl)cc2)CC1)(c1ccccc1)c1ccccc1 [LOPERAMIDE] | Compound metabolized
Fc1ccc([C@@H]2CCNC[C@H]2COc2ccc3c(c2)OCO3)cc1 [PAROXETINE] | Compound metabolized

settings: human gut metagenome, 24 h, 2 µM; remark: another data set of the same source

SMILES | Bacterial Biotransformation
CN(C)C(=O)C(CCN1CCC(O)(c2ccc(Cl)cc2)CC1)(c1ccccc1)c1ccccc1 [LOPERAMIDE] | Compound metabolized
Fc1ccc([C@@H]2CCNC[C@H]2COc2ccc3c(c2)OCO3)cc1 [PAROXETINE] | Compound metabolized

settings: human gut metagenome, 24 h, 2 µM; remark: another data set of the same source

SMILES | Bacterial Biotransformation
CN(C)C(=O)C(CCN1CCC(O)(c2ccc(Cl)cc2)CC1)(c1ccccc1)c1ccccc1 [LOPERAMIDE] | Compound metabolized
Fc1ccc([C@@H]2CCNC[C@H]2COc2ccc3c(c2)OCO3)cc1 [PAROXETINE] | Compound metabolized

settings: human gut metagenome, 24 h, 2 µM; remark: another data set of the same source

SMILES | Bacterial Biotransformation
CN(C)C(=O)C(CCN1CCC(O)(c2ccc(Cl)cc2)CC1)(c1ccccc1)c1ccccc1 [LOPERAMIDE] | Compound metabolized
Fc1ccc([C@@H]2CCNC[C@H]2COc2ccc3c(c2)OCO3)cc1 [PAROXETINE] | Compound NOT metabolized

settings: human gut metagenome, 24 h, 2 µM; remark: another data set of the same source

SMILES | Bacterial Biotransformation
CN(C)C(=O)C(CCN1CCC(O)(c2ccc(Cl)cc2)CC1)(c1ccccc1)c1ccccc1 [LOPERAMIDE] | Compound metabolized
Fc1ccc([C@@H]2CCNC[C@H]2COc2ccc3c(c2)OCO3)cc1 [PAROXETINE] | Compound metabolized

settings: human gut metagenome, 24 h, 2 µM; remark: another data set of the same source

SMILES | Bacterial Biotransformation
CN(C)C(=O)C(CCN1CCC(O)(c2ccc(Cl)cc2)CC1)(c1ccccc1)c1ccccc1 [LOPERAMIDE] | Compound metabolized
Fc1ccc([C@@H]2CCNC[C@H]2COc2ccc3c(c2)OCO3)cc1 [PAROXETINE] | Compound metabolized

assay: as §2, with “WLS-098” for “Z-025”, “human” for “rabbit”, “ERS12561754” for “ERS12561824”; settings: 2 µM

SMILES | Bacterial Biotransformation
CN(C)C(=O)C(CCN1CCC(O)(c2ccc(Cl)cc2)CC1)(c1ccccc1)c1ccccc1 [LOPERAMIDE] | Compound metabolized
Fc1ccc([C@@H]2CCNC[C@H]2COc2ccc3c(c2)OCO3)cc1 [PAROXETINE] | Compound metabolized

settings: human gut metagenome, 24 h, 2 µM; remark: another data set of the same source

SMILES | Bacterial Biotransformation
CN(C)C(=O)C(CCN1CCC(O)(c2ccc(Cl)cc2)CC1)(c1ccccc1)c1ccccc1 [LOPERAMIDE] | Compound metabolized
Fc1ccc([C@@H]2CCNC[C@H]2COc2ccc3c(c2)OCO3)cc1 [PAROXETINE] | Compound NOT metabolized

assay: as §2, with “WLS-027” for “Z-025”, “human” for “rabbit”, “ERS12561744” for “ERS12561824”; settings: 2 µM

SMILES | Bacterial Biotransformation
CN(C)C(=O)C(CCN1CCC(O)(c2ccc(Cl)cc2)CC1)(c1ccccc1)c1ccccc1 [LOPERAMIDE] | Compound metabolized
Fc1ccc([C@@H]2CCNC[C@H]2COc2ccc3c(c2)OCO3)cc1 [PAROXETINE] | Compound metabolized

assay: as §2, with “WLS-052” for “Z-025”, “human” for “rabbit”, “ERS12561747” for “ERS12561824”; settings: 2 µM

SMILES | Bacterial Biotransformation
CN(C)C(=O)C(CCN1CCC(O)(c2ccc(Cl)cc2)CC1)(c1ccccc1)c1ccccc1 [LOPERAMIDE] | Compound metabolized
Fc1ccc([C@@H]2CCNC[C@H]2COc2ccc3c(c2)OCO3)cc1 [PAROXETINE] | Compound NOT metabolized

assay: as §2, with “Z-011” for “Z-025”, “mouse” for “rabbit”, “ERS12561811” for “ERS12561824”; settings: 2 µM

SMILES | Bacterial Biotransformation
CN(C)C(=O)C(CCN1CCC(O)(c2ccc(Cl)cc2)CC1)(c1ccccc1)c1ccccc1 [LOPERAMIDE] | Compound NOT metabolized
Fc1ccc([C@@H]2CCNC[C@H]2COc2ccc3c(c2)OCO3)cc1 [PAROXETINE] | Compound NOT metabolized

settings: human gut metagenome, 24 h, 2 µM; remark: another data set of the same source

SMILES | Bacterial Biotransformation
CN(C)C(=O)C(CCN1CCC(O)(c2ccc(Cl)cc2)CC1)(c1ccccc1)c1ccccc1 [LOPERAMIDE] | Compound metabolized
Fc1ccc([C@@H]2CCNC[C@H]2COc2ccc3c(c2)OCO3)cc1 [PAROXETINE] | Compound metabolized

assay: as §2, with “Z-006” for “Z-025”, “mouse” for “rabbit”, “ERS12561806” for “ERS12561824”; settings: 2 µM

SMILES | Bacterial Biotransformation
CN(C)C(=O)C(CCN1CCC(O)(c2ccc(Cl)cc2)CC1)(c1ccccc1)c1ccccc1 [LOPERAMIDE] | Compound metabolized
Fc1ccc([C@@H]2CCNC[C@H]2COc2ccc3c(c2)OCO3)cc1 [PAROXETINE] | Compound NOT metabolized

assay: as §1, with “Z-021” for “Z-023”, “ERS12561820” for “ERS12561822”; settings: 2 µM

SMILES | Bacterial Biotransformation
CN(C)C(=O)C(CCN1CCC(O)(c2ccc(Cl)cc2)CC1)(c1ccccc1)c1ccccc1 [LOPERAMIDE] | Compound NOT metabolized
Fc1ccc([C@@H]2CCNC[C@H]2COc2ccc3c(c2)OCO3)cc1 [PAROXETINE] | Compound metabolized
